From US20100047360A1, “Use Of Polyamines In The Treatment Of Psoriasis” (Bioforskining Pharma AS, priority 2006, published 2010)

Tested on: psoriasis
Test: Clinical study, efficacy of topical cream in psoriasis patients
Type: in vivo, human
Settings: patient; previously used antipsoriasis drugs
Description: The patient started to use a cream according to Example 1 two to four times daily. […] The patient stopped using the spermine cream after about six months.
A patient with psoriasis (knees, elbows and scalp) started to use a cream according to Example 1 daily.
A patient with psoriasis (scalp, auditory canal, hands, elbows, partly in the face and body (psoriasis grade medium on 15% of the body)).

SMILES: CN(Cc1cnc2nc(N)nc(N)c2n1)c1ccc(C(=O)N[C@@H](CCC(=O)O)C(=O)O)cc1 [methotrexate]
- effectiveness of previous treatment: only effective treatment
